Measured values: patent publication US20160279146A1, “METHODS AND PHARMACEUTICAL FORMULATIONS FOR TREATMENT OF SELECTIVE ESTROGEN-RECEPTOR MODULATOR-INDUCED ADVERSE DRUG REACTIONS” (priority 2013, published 2016)

Assays:
healthy females [1] = experiment: Neuropsychological tests, proof of concept study: conclusions per neuropsychological domain; format: in vivo, human; details: for Effect regarding executive functioning: 1 subject (trail making B), an indication; for Effect regarding information processing speed: both subjects, multiple indications
Protocol: (§1) 2 healthy females performed a number of neuropsychological tests at baseline, after taking 40 mg/day of tamoxifen for 4 consecutive days, and after taking 40 mg/day of tamoxifen combined with 0.5 mg/day of sublingual testosterone for 4 consecutive days, to investigate any beneficial effects of sublingual testosterone in women taking a selective estrogen-receptor modulator (SERM).
In this proof of concept study, 2 healthy females performed a number of neuropsychological tests to investigate any beneficial effects of sublingual testosterone in women taking a SERM. The following neuropsychological domains were investigated (tasks are in brackets, see below for more information): • Information processing speed (Big/Little Circle, Choice Reaction Time, Match to Sample Visual Search, Trail making task A, 5-Choice Reaction Time) • Executive functioning (Intra-Extra Dimensional Set Shift, Trail making task B) • Reaction speed (Single Choice Reaction Time) • Working memory (Rapid Visual Information Processing) • Verbal memory (15-words task)
If tamoxifen in these women were to have detrimental effects on their cognitive functioning, a decrease in speed and/or accuracy on either of these tasks was expected.

healthy females [2] = experiment: 15 Words Test; format: in vivo, human; details: after 4 daily doses; for 15 words direct / 15 words recall: number of recalled words; for 15 words direct: total in 5 consecutive trials; for 15 words recognition: number of words
Protocol: as §1
The 15 Words Test (15WT) is developed to investigate episodic memory problems in patients with brain disorders. It is the Dutch version of the Auditory Verbal Learning Test (REF?). This test consists of 15 words, which have to be learned during five trials. After every trial the respondent is asked to recall as many words as possible. After a distraction period of 20 minutes, the respondent is, again asked to name the words they have learned before.

healthy females [3] = experiment: Rapid Visual Information Processing (RVP); format: in vivo, human; details: 2 healthy females; after 4 daily doses versus baseline
Description: A white box appears in the centre of the computer screen, inside which digits, from 2 to 9, appear in a pseudo-random order, at the rate of 100 digits per minute.
The nine RVP outcome measures cover latency, probabilities and sensitivity.

healthy females [4] = details: 2 healthy females; after 4 daily doses versus baseline
Description: Intra-Extra Dimensional Set Shift (IED)
Two artificial dimensions are used in the test: • color-filled shapes • white lines
Simple stimuli are made up of just one of these dimensions, whereas compound stimuli are made up of both, namely white lines overlying colour-filled shapes. The participant starts by seeing two simple colour-filled shapes, and must learn which one is correct by touching it.
Feedback teaches the participant which stimulus is correct, and after six correct responses, the stimuli and/or rules are changed. These shifts are initially intra-dimensional (e.g. colour filled shapes remain the only relevant dimension), then later extra-dimensional (white lines become the only relevant dimension). Participants progress through the test by satisfying a set criterion of learning at each stage (six consecutive correct responses). If at any stage the participant fails to reach this criterion after 50 trials, the test terminates. […]

Compound	Effect regarding verbal memory (healthy females [1]; 1 subject (15 words recall))	Effect regarding executive functioning (healthy females [1])	Effect regarding information processing speed (healthy females [1])	15 words direct (healthy females [2]; Subject 1)	15 words recall (healthy females [2]; Subject 1)	15 words recognition (healthy females [2]; Subject 1)	15 words direct (healthy females [2]; Subject 2)	15 words recall (healthy females [2]; Subject 2)	15 words recognition (healthy females [2]; Subject 2)	RVP task result (healthy females [3])	IED task result (healthy females [4])
C[C@]12CC[C@H]3[C@@H](CCC4=CC(=O)CC[C@@]43C)[C@@H]1CC[C@@H]2O [testosterone]	positive effect	positive effects	positive effects	–	–	–	–	–	–	–	–
CC/C(=C(\c1ccccc1)c1ccc(OCCN(C)C)cc1)c1ccccc1 [TAMOXIFEN, (Z)-2-[4-(1,2-diphenylbut-1-enyl)phenoxy]-N,N-dimethyl-ethanamine]	–	deteriorating effects	deteriorating effects	51	6	27	43	9	28	no effects	no effects
